≈ marks a conversion by molar mass, not a printed value. Non-standard residues stand in square brackets, D forms with d. Residues, ends and D or L forms follow the SMILES beside them. *: point of attachment. 12Ado = NCCCCCCCCCCCC(=O)O; Decanoyl = CCCCCCCCCC(=O)*; Orn = NCCC[CH](N)C(=O)O
What was measured:
[1] = Charge at physiological pH (Q); format: physicochemical
[2] = Hydrophobicity (H) by HPLC elution from C18 column; format: physicochemical; conditions: percentage of acetonitrile required for elution
Hemolytic assay = format: cell-based; conditions: fresh mouse red blood cells (1%); hemolysis of 50% of mouse red blood cells (1%) after 3 hours in PBS; read-out: LC50, fifty percent lethal concentration (hemolysis)
Method: Organization of the compounds in aqueous solution was assessed by light-scattering measurements in phosphate buffered saline (PBS; 10 mM Na2HPO4, 150 mM NaCl, pH=7.0). Hemolytic assays were performed as described elsewhere, using fresh mouse red blood cells.
(§1) The mean value (±SD) is shown for Compound C; Minimum inhibitory concentration (MIC) of compounds required to inhibit bacterial proliferation after overnight incubation.

Escherichia coli 25922 [3] = test: Minimal inhibitory concentration; format: cell-based; conditions: Ec 25922, overnight incubation, read-out: MIC
Method: (§2) Minimal inhibitory concentrations (MICs) were determined as previously described. […] MICs were determined by microdilution susceptibility testing in 96-well plates (by Nunc) using inocula of 10^5 bacteria per ml. Cell populations were evaluated by optical density measurements at 620 nm and were calibrated against a set of standards. Hundred (100) μl of a bacterial suspension were added to 100 μl of culture medium (control) or to 100 μl of culture medium containing various tested compound concentrations in 2-fold serial dilutions. Inhibition of proliferation was determined by optical density measurements at 620 nm after an incubation period of 24 hours at 37° C. Data were obtained from ≥2 independent experiments performed in duplicate.
as §1

Escherichia coli ML35p = test: Minimal inhibitory concentration; format: cell-based; conditions: Ec ML35p, overnight incubation
Method: as §2, §1

[4] = tested on: Klebsiella pneumoniae 1287; test: Minimal inhibitory concentration; format: cell-based; conditions: Kp 1287, overnight incubation, read-out: MIC
Method: as §2, §1

[5] = tested on: Klebsiella pneumoniae C2 (carbapenemase 2-producing strain); test: Minimal inhibitory concentration; format: cell-based; conditions: Kp C2, overnight incubation, read-out: MIC
Method: as §2, §1

[6] = tested on: Pseudomonas aeruginosa 11662; test: Minimal inhibitory concentration; format: cell-based; conditions: Pa 11662, overnight incubation, read-out: MIC
Method: as §2, §1

[7] = tested on: Pseudomonas aeruginosa 11816; test: Minimal inhibitory concentration; format: cell-based; conditions: Pa 11816, overnight incubation, read-out: MIC
Method: as §2, §1

[8] = tested on: Salmonella enterica serovar Choleraesuis 7308; test: Minimal inhibitory concentration; format: cell-based; conditions: CHOLERAESUIS / SC7308, SC 7308, overnight incubation, read-out: MIC
Method: as §2, §1

[9] = tested on: Salmonella enterica serovar Typhimurium 14028; test: Minimal inhibitory concentration; format: cell-based; conditions: ST 14028, overnight incubation, read-out: MIC
Method: as §2, §1

[10] = Maximum tolerated dose, single-dose subcutaneous administration; format: in vivo; conditions: subcutaneous 20 mg/kg, mice
Method: Mortality was monitored for 7 days thereafter. Pharmacokinetic studies were performed as described elsewhere.

K. pneumoniae 1287 = test: Growth kinetics by absorbance at 620 nm; format: cell-based, Klebsiella pneumoniae; conditions: 10 μM Compound B, culture medium
Method: FIGS. 6A-B present growth kinetics assessed by measuring the absorbance at 620 nm of E. coli 25922 (FIG. 6A) and K. pneumoniae 1287 (FIG. 6B) in absence or presence of the 10 μM of Compound B (circles denote vehicle control, triangles denote Compound B; error bars represent standard deviations).

Escherichia coli 25922 [11] = test: Mouse peritonitis-sepsis model; format: in vivo
Method: A mouse peritonitis-sepsis model was created as described elsewhere. Infection was obtained after intraperitoneal injection of bacteria from a logarithmic-phase culture. Infected mice were treated subcutaneously. The doses were selected to allow comparison with the reference compound and to remain below the maximum tolerated dose after double-dose administration. […] Briefly, mouse peritonitis sepsis model for in vivo studies were performed using male ICR mice ([…]) obtained from Envigo Laboratories (Rehovot, Israel). […] Infection was obtained by intraperitoneal injection of a logarithmic phase culture of E. coli 25922 (1.3±0.2×10^6 CFU permouse in 0.3 ml PBS). […] Infection control mice were injected with the PBS vehicle. Mouse survival was monitored for up to 7 days after treatment. Statistical analyses were performed by paired Student's t test, at α=0.05.

[12] = tested on: Klebsiella pneumoniae 1287; test: Mouse peritonitis-sepsis model; format: in vivo; conditions: for survival frequency: neutropenic ICR mice infected i.p.
E. coli 25922 = test: Outer-membrane damage assay (NPN uptake); format: cell-based, Escherichia coli; conditions: sub-MIC concentrations
Method: 1-N-phenylnaphthylamine (NPN) uptake (manifested as fluorescence) reflects outer-membrane damage because normally bacteria are able to exclude hydrophobic substances. As described elsewhere, E. coli 25922 was grown to the mid-logarithmic phase of growth (OD=0.4-0.6 at 600 nm), centrifuged, and resuspended in 5 mM HEPES buffer containing 5 mM glucose to OD 0.5. Next, […] of NPN solution (0.2 mM) was added to every milliliter bacteria suspension. Using black 96-well plates, […] of bacteria suspension was mixed with […] of test compound at the desired concentration and the fluorescence immediately monitored (excitation 360 nm, emission 460 nm) for up to 10 min. Data were obtained from at least 2 independent experiments performed in triplicate.
(FU denotes fluorescence units; triangles denote Compound B, circles denote PMB, squares denote untreated control; error bars=SD).

[13] = tested on: resistance—nodulation—division deletion mutant; test: MIC on efflux mutant; format: cell-based; conditions: Escherichia coli
Text: The following strains were used for the studies below: Escherichia coli strain ML-35p (American Type Culture Collection [ATCC]; […]. The following gram-positive species was investigated: methicillin-resistant Staphylococcus aureus clinical isolate USA300 10017 (a gift from Dr. Gili Regev-Yochay, Infectious Disease Unit, Sheba Medical Center, Israel). Additional Escherichia coli strains tested include β-lactamase producer 35218; clinical isolate strains 14182, 14384, and U16327; and two K12 isogenic mutants, AG100 and AG100A. Unless otherwise stated, all bacterial cultures were grown overnight in Luria-Bertani broth (LB).
as §2

[14] = bacteria exposed in vitro to 5 μM Compound B for 15 minutes, neutropenic mice, 3 days post-infection

SMILES: CCCCCCCCCC(=O)NC(CCCN)C(=O)NC(CCCN)C(=O)NCCCCCCCCCCCC(=O)NC(CCCN)C(N)=O (stereo not shown) [Compound B] (Decanoyl-[Orn][Orn][12Ado][Orn]-NH2; configuration not given here)
- Q, charge at physiological pH [1]: 3
- H, hydrophobicity [2]: 43%
- CC50 at 3 h (Hemolytic assay): > 100 µM
- MIC (Escherichia coli 25922 [3]): > 50 µM
- MIC (Escherichia coli ML35p): > 50 µM
- MIC [4]: > 50 µM
- MIC [5]: > 50 µM
- MIC [6]: 50 µM (≈ 35.6 µg/mL)
- MIC [7]: 50 µM (≈ 35.6 µg/mL)
- MIC [8]: > 50 µM
- MIC [9]: > 50 µM
- adverse effects at highest tested dose [10]: did not result in any visible adverse effect
- growth kinetics in presence vs absence of compound (K. pneumoniae 1287): practically identical curves
- animal survival after infection with pretreated bacteria (Escherichia coli 25922 [11]; [14]): 40%
- survival rate (Escherichia coli 25922 [11]; neutropenic ICR mice infected i.p., lower dose administrated twice (1 and 6 hours after inoculation)): 70%
- mice protected from fatal sepsis (survival) (Escherichia coli 25922 [11]; neutropenic ICR mice infected i.p., s.c. single dose 1 hour after inoculation): 40%
- mice protected from developing sepsis (Escherichia coli 25922 [11]; neutropenic ICR mice, Compound B […] s.c. alone, 1 hour after infection): 36%
- animal survival after infection with pretreated bacteria [12, 14]: 70%
- survival frequency ([12]; s.c. double doses): 90%
- survival frequency ([12]; s.c. single dose): 60%
- OM permeabilization (NPN fluorescence) (E. coli 25922): rapidly caused a dose-dependent increase in fluorescence
- MIC [13]: 6.3 µM (≈ 4.48 µg/mL)

Source: US20200399308A1, “COMPOUNDS AND METHODS FOR ELICITING ANTIMICROBIAL ACTIVITY” (Technion Research & Development Foundation Limited, priority 2018, published 2020)
